How the values were obtained:
VLA-4/VCAM-1 = VLA-4/VCAM-1 (Homo sapiens, UniProt P05556+P13612); assay: VLA-4 (α4β1) dependent cell adhesion to VCAM-1; type: cell-based; settings: FIG. 3; VCAM-1 and Cmpd 1 versus BSA, VCAM-1 alone, Ig and anti-integrin antibodies
Source text: Referring now to FIG. 3, a histogram is shown of induced VLA-4 (α4β1) dependent cell adhesion to VCAM-1 in the presence of BSA, VCAM-1, VCAM-1 and a compound of Formula (I) (Cmpd 1), Ig, anti-α4, anti-αL, anti-β1, and anti-β2.
Activating all integrins is necessary for firm endothelial cell adhesion for extravasation.

[1] = tested on: CT26 colon cancer syngeneic tumor; assay: Study 1: CT26 syngeneic tumor model in Balb/c mice; type: in vivo, Mouse (Mus musculus)
Description: Mouse colon carcinoma CT26 cells were obtained from American Type Culture Collection (ATCC), USA. Cells were grown in RPMI-1640 medium (Sigma, Cat # R6504) supplemented with 10% FBS (Invitrogen, Cat #10438-026), and 1% penicillin streptomycin (Thermo Fisher Scientific, Cat #15140-122). To establish allografts, 1 million CT26 cells were suspended in 50 μL of serum-free medium and mixed at 1:1 ratio with matrigel before implanting subcutaneously into the right flank of mice.
Prior to inoculation, the skin on the injection site was swabbed with alcohol. To establish allografts, CT26 cells were suspended in serum free medium at a concentration of (1×10^6)/50 μL, mixed with equal volume of matrigel (1:1 ratio) and 100 μL of this mixture was injected to each mouse by subcutaneous implantation using a 1 mL BD syringe attached to a 24 gauge needle.
CT26 tumor xenografts were measured after approximately 1 week of cell inoculation when they become palpable. When the average tumor volume reaches around 110 mm^3, animals were randomized into treatment groups group maintaining the average tumor volume of each group similar across groups for Study 1 and Study 2. In Study 3, the animals were randomized on the basis of body weights +1 day post cell implantation.
Tumor dimensions (length and breadth) were measured on days 0 (animal randomization based on tumor volume) and thrice weekly thereafter until study termination. Tumor volumes were calculated using the formula (b^2*l)*0.52 where l=length, b=breadth (Dusan Djokovic et al., BMC Cancer, 2010, 10:641). Tumor growth inhibition was calculated after normalizing the tumor volume on a given day to that on day 1.
Mean body weight loss and percent changes were calculated for each group. Similarly, mean tumor volume and percent tumor growth inhibition were calculated. The percent tumor growth inhibition (% TGI) as a function of anti-tumor efficacy were computed with respect to untreated vehicle control by comparing to the tumor volumes of day 1 using formula described below: % TGI=[1−(Treatment TVFinal−Treatment TVInitial)/(Control TVFinal−Control TVInitial)]*100
The test agent, Compound 1 was evaluated in CT26 syngeneic tumor model in Balb/c mice. Compound 1 was administered in mice when the starting tumor volume reached 109±7.1 mm^3 eight days after implantation of CT26 cells.

Sequence of VLA-4/VCAM-1 (P13612 34-1032): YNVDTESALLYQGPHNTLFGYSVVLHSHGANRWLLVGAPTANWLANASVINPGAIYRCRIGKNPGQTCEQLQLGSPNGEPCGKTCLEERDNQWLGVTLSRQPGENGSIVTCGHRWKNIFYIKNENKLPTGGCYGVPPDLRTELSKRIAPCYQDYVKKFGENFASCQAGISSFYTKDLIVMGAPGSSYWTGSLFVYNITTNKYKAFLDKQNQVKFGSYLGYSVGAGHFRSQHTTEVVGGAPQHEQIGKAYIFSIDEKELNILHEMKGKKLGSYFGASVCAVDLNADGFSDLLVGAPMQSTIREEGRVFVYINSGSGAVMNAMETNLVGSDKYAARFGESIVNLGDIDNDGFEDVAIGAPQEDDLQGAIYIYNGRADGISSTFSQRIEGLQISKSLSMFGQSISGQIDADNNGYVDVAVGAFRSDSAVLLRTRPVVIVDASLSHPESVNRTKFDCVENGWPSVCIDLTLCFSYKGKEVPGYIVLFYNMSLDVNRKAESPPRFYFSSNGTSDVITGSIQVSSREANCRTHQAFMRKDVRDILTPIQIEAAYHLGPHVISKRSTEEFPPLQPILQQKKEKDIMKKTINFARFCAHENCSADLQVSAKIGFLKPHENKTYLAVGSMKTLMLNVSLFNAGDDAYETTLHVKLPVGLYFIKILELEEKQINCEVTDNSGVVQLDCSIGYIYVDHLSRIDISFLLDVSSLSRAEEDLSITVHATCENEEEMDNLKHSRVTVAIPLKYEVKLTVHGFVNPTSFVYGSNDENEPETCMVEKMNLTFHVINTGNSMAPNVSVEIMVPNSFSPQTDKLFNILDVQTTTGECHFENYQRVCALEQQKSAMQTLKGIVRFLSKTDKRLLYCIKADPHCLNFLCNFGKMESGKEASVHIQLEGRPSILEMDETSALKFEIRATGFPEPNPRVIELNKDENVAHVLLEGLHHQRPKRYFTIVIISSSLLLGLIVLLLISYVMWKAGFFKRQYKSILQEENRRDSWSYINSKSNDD
Sequence of VLA-4/VCAM-1 (P05556 21-798): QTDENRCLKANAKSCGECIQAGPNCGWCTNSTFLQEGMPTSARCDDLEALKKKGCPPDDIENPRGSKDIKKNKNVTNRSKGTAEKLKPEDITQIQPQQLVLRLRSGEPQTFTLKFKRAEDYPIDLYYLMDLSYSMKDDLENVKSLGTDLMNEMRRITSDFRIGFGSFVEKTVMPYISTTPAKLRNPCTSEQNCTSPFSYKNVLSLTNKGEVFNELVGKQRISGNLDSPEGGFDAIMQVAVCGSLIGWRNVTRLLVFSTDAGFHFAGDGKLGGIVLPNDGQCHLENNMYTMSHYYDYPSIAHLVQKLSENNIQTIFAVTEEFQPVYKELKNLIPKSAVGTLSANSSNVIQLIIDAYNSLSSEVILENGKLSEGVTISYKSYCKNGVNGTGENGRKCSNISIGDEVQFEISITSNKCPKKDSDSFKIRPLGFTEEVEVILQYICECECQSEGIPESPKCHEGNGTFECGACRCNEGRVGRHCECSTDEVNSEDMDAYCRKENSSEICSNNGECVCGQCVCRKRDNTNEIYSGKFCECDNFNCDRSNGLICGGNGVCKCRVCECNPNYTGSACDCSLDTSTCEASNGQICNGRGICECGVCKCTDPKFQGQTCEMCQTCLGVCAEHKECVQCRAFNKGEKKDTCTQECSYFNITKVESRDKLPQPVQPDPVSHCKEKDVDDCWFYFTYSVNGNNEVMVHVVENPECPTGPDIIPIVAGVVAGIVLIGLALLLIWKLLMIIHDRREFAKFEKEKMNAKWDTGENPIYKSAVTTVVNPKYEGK

`O=C(OCCOCCOCCOC(=O)N(Cc1cccs1)Cc1cccs1)N(Cc1cccs1)Cc1cccs1` [Compound 1, 3-oxo-1-(2-thienyl)-2-(2-thienylmethyl)-4,7,10-trioxa-2-azadodecan-12-yl bis(2-thienylmethyl)carbamate] was tested, and the “bound cells, adhesion to VCAM-1” value (VLA-4/VCAM-1) was “highest bound cells”, the “% Tumor Growth Inhibition” value ([1]; Study 1, 1 mg/kg IP QD at 4 h, Day 4) was 36.1% and the “% Tumor Growth Inhibition” value ([1]; Study 1, 1 mg/kg IP QD at 4 h, Day 6) was 41.4%. For the same molecule, the “% Tumor Growth Inhibition” value ([1]; Study 1, 1 mg/kg IP QD at 4 h, Day 8) was 61.5%, the “% Tumor Growth Inhibition” value ([1]; Study 1, 1 mg/kg IP QD at 4 h, Day 11) was 64.4% and the “% Tumor Growth Inhibition” value ([1]; Study 1, 1 mg/kg IP QD at 4 h, Day 13) was 55.4%. The “% Tumor Growth Inhibition” value ([1]; Study 1, 20 mg/kg PO QD at 4 h, Day 4) was −6.1%, the “% Tumor Growth Inhibition” value ([1]; Study 1, 20 mg/kg PO QD at 4 h, Day 6) was 16.5% and the “% Tumor Growth Inhibition” value ([1]; Study 1, 20 mg/kg PO QD at 4 h, Day 8) was 38.2%. The “% Tumor Growth Inhibition” value ([1]; Study 1, 20 mg/kg PO QD at 4 h, Day 11) was 42.2%, the “% Tumor Growth Inhibition” value ([1]; Study 1, 20 mg/kg PO QD at 4 h, Day 13) was 36.2% and the “tolerability in term of body weights of animals” value ([1]; Study 1, oral (20 mg/kg QD) and intraperitoneal (1 mg/kg QD) routes) was “well tolerated”. The “growth of established CT26 tumors” value ([1]; single agent, orally or intraperitoneally once daily for up to 30 days) was “delayed the growth”.

From patent US12636274B2, “Pharmaceutical compositions and methods for systemic treatment of solid tumors” (7 HILLS INTERESTS LLC, priority 2014, dated 2026)
